In patent US8974823B2, “Solid compositions of low-solubility drugs and poloxamers” (Bend Research, Inc., priority 2003, dated 2015):
Blank lines part the entries; values can stand above or below the molecule they belong to.

Legend:
Type in all cases: physicochemical
[1] = glass transition temperature (Tg) of the drug; settings: for Tg: Table B, unless noted Tg measured at less than 10% RH
Description: In a first aspect, the invention comprises a solid composition comprising a plurality of particles. The particles comprise a low-solubility drug and a poloxamer. The drug is in intimate contact with the poloxamer in the particles. Collectively, the drug and poloxamer constitute at least 50 wt % of the particles. At least a substantial portion of the drug in the composition is amorphous. The Tg of the drug is at least 50° C. Unless otherwise noted, as used herein the Tg refers to the Tg measured at less than 10% RH.
Such Tg values may represent that of drug dispersed in the amorphous portions of the poloxamer or the Tg of drug-rich phases or domains. […] The Tg of the drug may be at least about 60° C., at least about 70° C., or even at least about 80° C. The Tg of a drug can be determined using standard analytical techniques well known in the art, including by a dynamic mechanical analyzer (DMA), a dilatometer, a dielectric analyzer, and by differential scanning calorimetry (DSC).

[2] = in vitro dissolution test of Drug 4 compositions in PBS; settings: for AUC / Drug 4 Concentration: 1000 μg/mL if all dissolved; for Drug 4 Concentration: 37° C.
Description: (§1) The solid compositions of Examples 1-2 were evaluated in an in vitro dissolution test to ascertain concentration enhancement of Drug 1. A […] sample of each solid composition was added in duplicate to a microcentrifuge tube, so that the total concentration of Drug 1 would have been 2000 μg/mL if all of the drug had dissolved. The tubes were placed in a 37° C. temperature-controlled chamber, and 1.8 mL PBS containing 0.5 wt % sodium taurocholic acid and 1-palmitoyl-2-oleyl-sn-glycero-3-phosphocholine (NaTC/POPC, with a 4/1 weight ratio) at pH 6.5 and 290 mOsm/kg (simulating a Model Fasted Duodenal solution) was added to each respective tube. The samples were quickly mixed using a vortex mixer for about 60 seconds. The samples were centrifuged at 13,000 G at 37° C. for 1 minute. The resulting supernatant solution was then sampled and diluted 1:6 (by volume) with methanol and then analyzed by high-performance liquid chromatography (HPLC). The contents of each respective tube were mixed on a vortex mixer and allowed to stand undisturbed at 37° C. until the next sample was taken. Samples were collected at 4, 10, 20, 40, 90, and 1200 minutes.
The solid compositions of Examples 10-13 were evaluated in an in vitro dissolution test as in Examples 1-2, except that the dissolution medium was PBS. The amount of each composition added to the microcentrifuge tube was adjusted so that the concentration of Drug 4 in solution if all of the drug had dissolved was 1000 μg/mL.
The spray-dried compositions of Examples 14-15 were evaluated in an in vitro dissolution test as in Examples 10-13. The amount of each composition added to the microcentrifuge tube was adjusted so that the concentration of Drug 4 in solution if all of the drug had dissolved was […].
This composition was evaluated in an in vitro dissolution test as in Examples 10-13.

[3] = in vitro dissolution test of Drug 1 compositions in Model Fasted Duodenal solution; settings: for AUC: MFD solution; for AUC / Drug 1 Concentration: 2000 μg/mL if all dissolved; for Drug 1 Concentration: MFD solution pH 6.5, 37° C.
Description: as §1
As a control (C1), a sample of crystalline Drug 1 alone was tested in the same manner so that the concentration of Drug 1 in MFD solution would have been 2000 μg/mL if all of the drug had dissolved.
The concentrations of drug obtained in these samples were used to determine the maximum drug concentration (“MDC90”) and the area under the concentration-versus-time curve (“AUC90”) during the initial 90 minutes.

- Tg [1]: 91 °C
Molecule: O=C(NC(Cc1ccccc1)C(=O)N1CC(O)C1)c1cc2cc(Cl)ccc2[nH]1 (stereo not drawn) [5-chloro-1H-indole-2-carboxylic acid [(1)-benzyl-2-(3-hydroxy-azetidin-1-yl)-2-oxo-ethyl]-amide]

- Tg [1]: 112 °C
Molecule: Cl.Cl.O=C(O)COCCN1CCN(C(c2ccccc2)c2ccc(Cl)cc2)CC1 (stereo not drawn) [(2(-(4-((4-chlorophenyl)phenylmethyl)-1-piperazinyl)ethoxy)acetic acid, dihrochloride]

- Tg [1]: 53 °C
Molecule: O=C(O)c1ccc(C(F)(F)F)cc1-c1ccc2c(c1)OCC(Cc1ccccc1)C2O (single isomer, unassigned; (+)) [(+)-2-(3-benzyl-4hydroxy-chroman-7-yl)-4-trifluoromethyl-benzoic acid]

- Tg [1]: 72 °C
Molecule: O=C1Cc2cc(CCN3CCN(c4nsc5ccccc45)CC3)c(Cl)cc2N1 [Ziprasidone]

- AUC90 ([3]; Drug 1, MFD, initial 90 minutes): 21,600 min * μg/mL
- MDC90 ([3]; Drug 1, MFD, maximum drug concentration during initial 90 minutes): 255 µg/mL
- AUC ([3]; Drug 1, time 0 min): 0 µg·min/mL
- AUC ([3]; Drug 1, time 4 min): 400 µg·min/mL
- AUC ([3]; Drug 1, time 10 min): 1700 µg·min/mL
- AUC ([3]; Drug 1, time 20 min): 4100 µg·min/mL
- AUC ([3]; Drug 1, time 40 min): 9000 µg·min/mL
- AUC ([3]; Drug 1, time 90 min): 21,600 min * μg/mL
- AUC ([3]; Drug 1, time 1200 min): 299,000 min * μg/mL
- Drug 1 Concentration ([3]; time 0 min): 0 µg/mL
- Drug 1 Concentration ([3]; time 4 min): 204 µg/mL
- Drug 1 Concentration ([3]; time 10 min): 227 µg/mL
- Drug 1 Concentration ([3]; time 20 min): 243 µg/mL
- Drug 1 Concentration ([3]; time 40 min): 250 µg/mL
- Drug 1 Concentration ([3]; time 90 min): 255 µg/mL
- Drug 1 Concentration ([3]; time 1200 min): 244 µg/mL
Molecule: O=C(N[C@@H](Cc1ccccc1)[C@@H](O)C(=O)N1C[C@@H](O)[C@@H](O)C1)c1cc2cc(Cl)ccc2[nH]1 [Example C1, 5-chloro-1H-indole-2-carboxylic acid [(1S)-benzyl-(2R)-hydroxy-3-((3R,4S)-dihydroxy-pyrrolidin-1-yl-)-3-oxypropyl]amide]

More lines, now with the values behind:

Molecule: CC(C)c1c(C(=O)Nc2ccccc2)c(-c2ccccc2)c(-c2ccc(F)cc2)n1CCC(O)CC(O)CC(=O)[O-].CC(C)c1c(C(=O)Nc2ccccc2)c(-c2ccccc2)c(-c2ccc(F)cc2)n1CCC(O)CC(O)CC(=O)[O-].O.O.O.[Ca+2] (stereo not drawn) [2-(4-fluorophenyl)-beta, delta-dihydroxy-5-(1-methylethyl)-3-phenyl-4-[(phenylamino)carbonyl]-1H-pyrrole-1-heptanoic acid, calcium salt (2:1), trihydrate]
- Tg [1]: 111 °C

Molecule: O=C(N[C@@H](Cc1ccccc1)[C@@H](O)C(=O)N1C[C@@H](O)[C@@H](O)C1)c1cc2cc(Cl)ccc2[nH]1 [Drug 1, 5-chloro-1H-indole-2-carboxylic acid [(1S)-benzyl-(2R)-hydroxy-3-((3R,4S)-dihydroxy-pyrrolidin-1-yl-)-3-oxypropyl]amide]
- Tg [1]: 96 °C
- Tg,drug ([1]; at ambient RH): 113 °C

Molecule: C[C@@H]1CC[C@@]2(OC1)O[C@H]1C[C@H]3[C@@H]4CC[C@H]5C[C@@H](O[C@@H]6O[C@H](CO)[C@@H](O[C@@H]7O[C@H](COC(=O)Nc8ccccc8F)[C@@H](OC(=O)Nc8ccccc8F)[C@H](O)[C@H]7O)[C@H](O)[C@H]6O)CC[C@]5(C)[C@H]4CC(=O)[C@]3(C)[C@H]1[C@@H]2C [3-[(4-O-{4,6-bis(2-flurophenylcarbamoyl)]-β-D-glucopyranolsyl-)β-D-flucopyranosyl]oxy-(3β,5α,25R)-spirostan-12-one]
- Tg [1]: 143 °C

Molecule: 4-[3-[4-(2-methylimidazol-1-yl) phenylthio] phenyl]-3,4,5,6-tetrahydro-2H-pyran-4-carboxamide hemifumarate
- Tg [1]: 81 °C

Molecule: CCOC(=O)N1c2ccc(C(F)(F)F)cc2[C@@H](N(Cc2cc(C(F)(F)F)cc(C(F)(F)F)c2)C(=O)OC)C[C@H]1CC [Control C6, Torcetrapib]
- Cmax90 ([2]; Drug 4, initial 90 minutes): <1000 ng/mL
- AUC90 ([2]; Drug 4, initial 90 minutes, Table 12): < 1470 ng·h/mL
- AUC90 ([2]; Drug 4, initial 90 minutes, Table 15): <88 min-μg/mL
- AUC90 ([2]; Drug 4, initial 90 minutes, Table 18): <1470 ng·h/mL
- AUC ([2]; Drug 4, time 0 min): 0 min-μg/mL
- AUC ([2]; Drug 4, time 4 min): <2 min-μg/mL
- AUC ([2]; Drug 4, time 10 min): <8 min-μg/mL
- AUC ([2]; Drug 4, time 20 min): <18 min-μg/mL
- AUC ([2]; Drug 4, time 40 min): <38 min-μg/mL
- AUC ([2]; Drug 4, time 90 min): <88 min-μg/mL
- AUC ([2]; Drug 4, time 1200 min): <1,200 min-μg/mL
- Drug 4 Concentration ([2]; time 0 min): 0 µg/mL
- Drug 4 Concentration ([2]; time 4 min): <1 µg/mL
- Drug 4 Concentration ([2]; time 10 min): <1 µg/mL
- Drug 4 Concentration ([2]; time 20 min): <1 µg/mL
- Drug 4 Concentration ([2]; time 40 min): <1 µg/mL
- Drug 4 Concentration ([2]; time 90 min): <1 µg/mL
- Drug 4 Concentration ([2]; time 1200 min): <1 µg/mL

Molecule: CON(C)C(=O)C(O)[C@H](Cc1ccccc1)NC(=O)c1cc2cc(Cl)ccc2[nH]1 (stereo in doubt) [[R—(R*,S*)]-5-chloro-N-[2-hydroxy-3-[(methoxymethylamino)-3-oxo-1-(phenylmethyl)propyl]propyl]-1H-indole-2-carboxamide]
- Tg [1]: 80 °C

Molecule: CCC(CC)Nc1cc(C)nc(Oc2c(C)cc(C)cc2C)c1C.Cl [[3,6-dimethyl-2-(2,4,6-trimethyl-phenoxy)-pyridin-4-yl]-(1-ethyl-propyl)-amine hydrochloride]
- Tg [1]: 87 °C
